One may read the IC50 as the concentration at which inhibition is half-maximal. Low readings indicate inhibition by little substance, high ones a need for much substance.

The results in this text go back to ChEMBL document CHEMBL3864150, “Synthesis and cytotoxicity study of novel 3-(triazolyl)coumarins based fluorescent scaffolds” (Bioorg Med Chem Lett, 2016).

The nature of data set [1]: Cytotoxicity against human HeLa cells after 24 hrs by MTT assay. Format: functional, cell-based.
Data set [2] in a line: Cytotoxicity against human MCF7 cells after 24 hrs by MTT assay. The data set is classed as functional, cell-based. The settings on record: MCF7, 24 h. In general terms: Tetrazolium assays rely on reduction of a dye to a coloured formazan, in cell work by metabolically active cells.
Data set [3] can be described thus: Cytotoxicity against human MRC5 cells after 24 hrs by MTT assay.
A further data set has as its system HeLa. The data set can be described thus: Selectivity factor, ratio of IC50 for human MRC5 cells to IC50 for human HeLa cells.
In the next data set the test system is MCF7. The data set can be described thus: Selectivity factor, ratio of IC50 for human MRC5 cells to IC50 for human MCF7 cells.
The nature of data set [4]: Drug uptake in human MCF7 cells at 20 uM after 2 hrs by fluorescence microscopy. Format: ADME, cell-based. The settings on record: mcf7, 2 h.

As for `COc1cccc2cc(-n3nnc4c3-c3ccccc3N(C(=O)CCN)Cc3ccccc3-4)c(=O)oc12`, the IC50 in data set [1] was 26.2 µM; in data set [2], 21.9 µM. Half-maximal inhibition in data set [3] (IC50 at 24 h) was put at 92.8 µM. Moreover, the “Ratio IC50” value turned out to be 3.54 in the data set on HeLa and 4.24 with MCF7.
In the same order, the values of `[N-]=[N+]=Nc1cc2cc(Br)ccc2oc1=O` are 28.3 µM, 23.7 µM, 70.4 µM, 2.48 and 2.97.
In the case of `COc1cccc2cc(N=[N+]=[N-])c(=O)oc12`, the results for the IC50 in data set [1] and in data set [2] were 36.4 µM and 31.5 µM, respectively. In data set [3], this compound came in with an IC50 at 24 h of 58.7 µM. Moreover, the figures for the “Ratio IC50” value in the data set with HeLa and in the data set with MCF7 were 1.61 and 1.85, respectively.
For `[N-]=[N+]=Nc1cc2ccc(O)cc2oc1=O`, in that order: 41.6 µM, 38.4 µM, 62.7 µM, 1.5 and 1.63.
For the compound `[N-]=[N+]=Nc1cc2ccccc2oc1=O`, the IC50 in data set [1] came out at 29.6 µM; in data set [2], 26.7 µM. For the same compound, the concentration for half-maximal inhibition (IC50) at 24 h in data set [3] worked out at 70.2 µM. The “Ratio IC50” value is listed as 2.37 in the data set on HeLa and 2.63 in the data set with MCF7.
For `NCCC(=O)N1Cc2ccccc2-c2nnn(-c3cc4cc(Br)ccc4oc3=O)c2-c2ccccc21`, in that order: 18.2 µM, 10.7 µM, 100 µM, 5.49 and 9.4.
For `NCCC(=O)N1Cc2ccccc2-c2nnn(-c3cc4ccc(OCCBr)cc4oc3=O)c2-c2ccccc21`, in that order: 19.5 µM, 18.5 µM, 121 µM, 6.19 and 6.52.
In the case of `NCCC(=O)N1Cc2ccccc2-c2nnn(-c3cc4cc(Cl)cc(Cl)c4oc3=O)c2-c2ccccc21`, the IC50 in data set [1] was 17.5 µM; in data set [2], 9.83 µM. For the same compound, inhibition in data set [3] was half-maximal at 185 µM (IC50 at 24 h). Also, the “Ratio IC50” value amounted to 10.58 in the data set on HeLa and 18.84 in the data set on MCF7. In addition, in data set [4], the Drug uptake entry is “Active”.
Consider `NCCC(=O)N1Cc2ccccc2-c2nnn(-c3cc4ccc(O)cc4oc3=O)c2-c2ccccc21`, for which the IC50 in data set [1] was 21.1 µM; in data set [2] it was 18.4 µM. Further, the IC50 at 24 h in data set [3] stood at 90.2 µM. Also, the “Ratio IC50” value in the data set on HeLa is 4.27; in the data set on MCF7 it was 4.9. For the same compound, the Drug uptake result in data set [4] is given as “Active”.
On to `[N-]=[N+]=Nc1cc2cc(Cl)cc(Cl)c2oc1=O`, for which the IC50 in data set [1] is 27.6 µM; in data set [2], 18.6 µM. The compound also displayed an IC50 at 24 h in data set [3] of 67.2 µM. Also, the entries for the “Ratio IC50” value in the data set with HeLa and in the data set on MCF7 were 2.43 and 3.6, respectively.
In the same order, the values of `NCCC(=O)N1Cc2ccccc2-c2nnn(-c3cc4ccccc4oc3=O)c2-c2ccccc21` are 19.8 µM, 12.7 µM, 110 µM, 5.55 and 8.68.
On to `COc1cccc2c1C(=O)c1c(O)c3c(c(O)c1C2=O)C[C@@](O)(C(=O)CO)C[C@@H]3O[C@H]1C[C@H](N)[C@H](O)[C@H](C)O1` [DOXORUBICIN], for which the IC50 in data set [1] was 5.2 µM. Further, it took 70.6 µM to reach half-maximal inhibition in data set [3] (IC50 at 24 h).
